Data on nine molecules can be found in publication PMC11368737, “Effects of three flavonoids on the metabolism of lenvatinib” (Frontiers in Pharmacology, 2024).

Like-named read-outs stand apart in the source and are kept apart here.

Series [1] addresses T1, CYP1A2 (Rattus norvegicus, UniProt P04799).
T1 sequence (P04799 1-513): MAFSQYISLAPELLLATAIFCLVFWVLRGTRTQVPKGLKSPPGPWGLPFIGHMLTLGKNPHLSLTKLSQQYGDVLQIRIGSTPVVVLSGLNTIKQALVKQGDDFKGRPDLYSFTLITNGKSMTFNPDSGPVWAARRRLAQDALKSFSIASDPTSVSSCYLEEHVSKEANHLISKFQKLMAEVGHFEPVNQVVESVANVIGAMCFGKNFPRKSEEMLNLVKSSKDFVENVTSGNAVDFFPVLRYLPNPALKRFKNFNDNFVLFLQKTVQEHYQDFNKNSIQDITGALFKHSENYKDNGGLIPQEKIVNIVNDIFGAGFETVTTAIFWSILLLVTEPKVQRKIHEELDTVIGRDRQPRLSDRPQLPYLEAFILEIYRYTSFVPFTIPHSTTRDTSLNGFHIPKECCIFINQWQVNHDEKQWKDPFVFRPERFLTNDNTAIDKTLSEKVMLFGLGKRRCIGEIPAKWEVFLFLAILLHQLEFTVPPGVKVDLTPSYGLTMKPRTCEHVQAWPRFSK
In words: CYP1A2 activity in RLM, mixed probe method (melatonin). The conditions noted are these: for inhibition at 30 min, 100 µM: rat.
Protocol: (§2) To determine the enzymatic kinetic parameter (the Michaelis constant, Km) of lenvatinib in RLM and HLM, we established a 200 μL enzyme reaction system, which included 2–100 μM lenvatinib, 0.3 mg/mL RLM or HLM, 0.1 M Tris-HCl, and 1 mM NADPH. […] The mixed probe substrates were added to an incubation mixture containing 0.3 mg/mL RLM, 0.1 M PBS, and 1 mM NADPH. First, the mixture without NADPH was pre-incubated at 37°C for 5 min, and then 10 μL NADPH was added to start the reaction. After incubation for 30 min, the samples were immediately freezed to −80°C to terminate the reaction. About 20 min later, 300 μL acetonitrile and 10 μL regorafenib (200 ng/mL) as IS were added to precipitate the protein. When the samples were fully vortexed for 2 min and completely mixed, the mixture was centrifuged for 10 min at 13,000 rpm. In the end, each supernatant was detected and analyzed by UPLC-MS/MS.
(§3) To explore the ability of three flavonoids to inhibit lenvatinib metabolism in vitro, we measured the half-maximal inhibitory concentration (IC50) of luteolin, myricetin, and fisetin, respectively. The 200 μL incubation system consisted of Tris-HCl (0.1 M), RLM or HLM (0.3 mg/mL), NADPH (1 mM), lenvatinib (23.5 μM in RLM or 16.9 μM in HLM) and three flavonoids (0, 0.01, 0.1, 1, 10, 25, 50 and 100 μM). To evaluate the effects of three flavonoids on CYP1A2, CYP2B6 and CYP3A4 activity in RLM, the specific CYP isoform probe mixture was incubated with a single inhibitor and the specific CYP isoform probe was used at a concentration equal to or slightly below its corresponding Km value ([Dinger et al., 2014]). […] Finally, the samples were processed as mentioned above.

Series [2] relates to CYP3A4. In words: in vitro. The conditions noted are these: rat; for IC50 at 30 min: microsomes.
Protocol: as §2, §3
Series [3] concerns CYP3A4.
Protocol: as §2, §3
For series [4], the system named is lenvatinib metabolism (M1 formation) in HLM. The experiment in a line: Inhibition of lenvatinib metabolism (M1 formation) by flavonoids in human liver microsomes. Type of series: in vitro ADME. The following applies: human; for IC50 at 30 min: 0.3 mg/mL HLM, lenvatinib 16.9 μM, mean ± S.D., read-out: IC50 to inhibit the metabolism of lenvatinib in HLM.
For a further series, the system named is CYP2B6. In words: CYP2B6 activity in RLM, mixed probe method (bupropion). The conditions noted are these: for IC50 at 30 min: rat.
On the set-up of series [5]: method as in Xia et al., 2023. The following applies: co-administered azole; ref Xia et al., 2023; cited from earlier work.
The subject of series [6] is CYP1A2. Also on record: method as in Cao et al., 2017; Shi et al., 2024. The conditions noted are these: ref Cao et al., 2017; Shi et al., 2024; read-out: IC50 on CYP1A2 in vitro; cited from earlier work.
The subject of series [7] is lenvatinib metabolism in human liver microsomes (HLM). In words: Inhibition of lenvatinib metabolism (M1 formation) by flavonoids in human liver microsomes. The conditions noted are these: for Inhibitory type on lenvatinib metabolism in HLM: Lineweaver-Burk plot. Type of series: in vitro ADME.
The subject of series [8] is lenvatinib metabolism in rat liver microsomes (RLM). In words: Inhibition of lenvatinib metabolism (M1 formation) by flavonoids in rat liver microsomes. The conditions noted are these: Lineweaver-Burk plot. The source says:
(§1) The experimental data were expressed as mean ± standard deviation (mean ± S.D.). Through GraphPad Prism 9.5 software, the Michaelis-Menten curves of lenvatinb in RLM and HLM were drawn based on the Michaelis-Menten analysis curve fitting program in nonlinear regression analysis, and the log(inhibitor) vs normalized response mode was applied to acquire the corresponding IC50 curve diagram. The Lineweaver-Burk plot was got by the Lineweaver-Burk double reciprocal mode, and its subsidiary plot was drawn on the slope (Km/Vmax vs. inhibitor concentration) and y-intercept (1/Vmax vs. inhibitor concentration) of the drawn line. Besides, the mean plasma concentration-time curve of lenvatinib was plotted based on the pharmacokinetic data. Drug and Statistics (DAS) software (version 3.0 software, Mathematical Pharmacology Professional Committee of China, Shanghai, China) with non-compartment model analyzes was used to obtain the corresponding pharmacokinetic parameters. SPSS (version 24.0; SPSS Inc., Chicago, IL, United States of America) with one-way ANOVA was used to compare the difference between the combination and the single group, respectively. p < 0.05, it was considered statistically significant.

Series [9] relates to tofacitinib metabolism in RLM. Also on record: method as in Ye et al., 2024. The following applies: ref Ye et al., 2024, cited from earlier work.
The subject of series [10] is lenvatinib metabolism (M1 formation) in RLM. The experiment in a line: Inhibition of lenvatinib metabolism (M1 formation) by flavonoids in rat liver microsomes. The following applies: rat.
From the text: as §1

Details of series [11]: method as in Hong et al., 2014. The following applies: rats; ref Hong et al., 2014; cited from earlier work.
For series [12], the system named is tofacitinib metabolism in HLM. On the set-up: method as in Ye et al., 2024. The conditions noted are these: ref Ye et al., 2024, cited from earlier work.
Series [13] in a line: Metabolic stability of lenvatinib in RLM with or without flavonoids. Type of series: in vitro ADME. The following applies: rat, rat liver microsomes, 1.0 μM lenvatinib, 0.3 mg/mL RLM, with or without flavonoid, n = 3. The method, then:
Using the UPLC-MS/MS technique, metabolic stability tests were carried out to monitor any discernible drop in lenvatinib concentration in the RLM matrix ([Shang et al., 2021]). 1.0 μM lenvatinib was incubated with 0.3 mg/mL RLM and 1 mM NADPH in 0.1 M Tris-HCl buffer until a final volume of 0.2 mL was reached. NADPH was introduced following a 5 min pre-incubation period, and the reaction was stopped at various intervals of 0, 5, 10, 45, 60, and 90 min. Similarly, three flavonoids were added to the above incubation system to study the effects of the three flavonoids on the metabolic stability of lenvatinib. The post-treatment method was same as the above enzyme reaction. The metabolic stability curve for lenvatinib was constructed from the obtained data.
The relative content of lenvatinib in the RLM matrix was calculated after stopping the metabolic reaction at different time periods. The relative content was equal to the percentage of the remaining lenvatinib relative to zero time (representing 100%). […] The in vitro half-life (t1/2) was obtained using the equation: t1/2 = 0.693/k; V (mL/mg) = volume of incubation ([Kaci et al., 2023])/protein in the incubation ([Rumgay et al., 2022]); intrinsic clearance (CLint) (mL/min/mg protein) = V × 0.693/t1/2. […] The metabolic stability results of three flavonoids co-incubated with lenvatinib, including t1/2 and clearance were shown in Table 3.

The subject of another series is HLM. In words: Michaelis-Menten kinetics of lenvatinib in HLM. Type of series: in vitro ADME, human. The following applies: HLM vs RLM.
A short description of series [14]: Michaelis-Menten kinetics of lenvatinib in HLM. The conditions noted are these: human, human liver microsomes; 2–100 μM lenvatinib, 0.3 mg/mL HLM. Format: in vitro ADME, human.
Protocol: To determine the enzymatic kinetic parameter (the Michaelis constant, Km) of lenvatinib in RLM and HLM, we established a 200 μL enzyme reaction system, which included 2–100 μM lenvatinib, 0.3 mg/mL RLM or HLM, 0.1 M Tris-HCl, and 1 mM NADPH. […] First, the mixture without NADPH was pre-incubated at 37°C for 5 min, and then 10 μL NADPH was added to start the reaction. After incubation for 30 min, the samples were immediately freezed to −80°C to terminate the reaction. About 20 min later, 300 μL acetonitrile and 10 μL regorafenib (200 ng/mL) as IS were added to precipitate the protein. When the samples were fully vortexed for 2 min and completely mixed, the mixture was centrifuged for 10 min at 13,000 rpm. In the end, each supernatant was detected and analyzed by UPLC-MS/MS.
The experimental data were expressed as mean ± standard deviation (mean ± S.D.). Through GraphPad Prism 9.5 software, the Michaelis-Menten curves of lenvatinb in RLM and HLM were drawn based on the Michaelis-Menten analysis curve fitting program in nonlinear regression analysis, and the log(inhibitor) vs normalized response mode was applied to acquire the corresponding IC50 curve diagram. […]
A short description of series [15]: Pharmacokinetics of lenvatinib in SD rats with or without luteolin or myricetin. The conditions noted are these: Sprague-Dawley, rat, in vivo, po, 1.2 mg/kg. The method, then: Fifteen SD rats were randomly divided into three groups (n = 5): Group A, lenvatinib (1.2 mg/kg, p. o.) ([Cui et al., 2021]); Group B, lenvatinib (1.2 mg/kg, p. o.) + luteolin (30 mg/kg, p. o.) ([Chen et al., 2010]); Group C, lenvatinib (1.2 mg/kg, p. o.) + myricetin (50 mg/kg, p. o.) ([Lan et al., 2017]). Three drugs were suspended in 0.5% carboxymethylcellulose sodium salt (CMC-Na) solution, respectively, prepared when used. Before the formal experiment, SD rats fasted for 12 h to avoid the effect of food intake on drug absorption, but were free to drink water. At the beginning of the experiment, group A was given equal volumes of 0.5% CMC-Na solution, while group B and C were received luteolin and myricetin, respectively. After 30 min, all three groups were gavaged with a single dose of 1.2 mg/kg lenvatinib. At 1, 1.5, 2, 3, 4, 6, 8, 12, and 24 h after lenvatinib administration, blood samples were collected from the tail vein into a 1.5 mL EP tube treated with heparin, respectively. The 50 μL plasma supernatant was precisely extracted and put into a new 1.5 mL EP tube after centrifugation at 8,000 rpm for 10 min. […] Finally, the liquid supernatant was taken to UPLC-MS/MS to detect the concentration of the analytes.

Series [16] relates to CYP1A2. Also on record: method as in Vavrová et al., 2022; Liu et al., 2023. The conditions noted are these: CYP1A2 selective inhibitor; ref Vavrová et al., 2022; Liu et al., 2023; cited from earlier work.
Substrate in the series “not read”: COc1ccc2[nH]cc(CCNC(C)=O)c2c1
Protocol: as §2, §3
In words: not read. The conditions noted are these: other: melatonin, mixed method, RLM; 37.0 °C.

Where [17] appears, read: human liver microsomes, probe lenvatinib 16.9 μM.
Setting [18] is: rat liver microsomes, probe bupropion (8.0 μM).

Regarding `O=c1c(O)c(-c2ccc(O)c(O)c2)oc2cc(O)ccc12` [fisetin], it took 5.89 ± 0.13 µM to reach half-maximal inhibition against CYP1A2 [1] (IC50). Also, the inhibition at 30 min, 100 µM against CYP1A2 [1] (microsomes) came to 93.6%. The values for the IC50 at 30 min (in the series on CYP3A4 [2]; in series [4] (setting [17]); in the series on CYP2B6 (setting [18])) were 74.2 ± 2.16 µM, 21.2 ± 0.93 µM and 29.4 ± 1.36 µM, respectively. Besides, in the series with CYP3A4 [3] (RLM), the “Degree of inhibition on CYP3A4” value was “weak inhibition”.

Turning to `C[C@@H](c1nc(-c2ccc(C#N)cc2)cs1)[C@](O)(Cn1cncn1)c1cc(F)ccc1F` [isavuconazole], the “Improvement of plasma exposure to lenvatinib” value in series [5] is 50.20%.

Take `O=c1cc(-c2ccc(O)c(O)c2)oc2cc(O)cc(O)c12` [luteolin]: the results for the 50% inhibitory concentration (IC50) in the series with CYP1A2 [6] and on CYP1A2 [1] were less than 10 µM and 0.81 ± 0.07 µM, respectively. For the same molecule, the “Degree of inhibition on CYP1A2” value at CYP1A2 [1] (RLM, 100 μM) was “strong inhibition”. On CYP1A2 [1] (rat liver microsomes, probe melatonin (30.0 μM)), this molecule registered an inhibition at 30 min, 100 µM of 96.9%. Further, the IC50 at 30 min turned out to be 49.4 ± 2.45 µM with CYP3A4 [2], 6.89 ± 0.43 µM in [4] (setting [17]) and 18.9 ± 1.33 µM with CYP2B6 (setting [18]). Moreover, in the series on CYP3A4 [3] (microsomes), the “Degree of inhibition on CYP3A4” value was “weak inhibition”. Moreover, the “Inhibitory type on lenvatinib metabolism in HLM” value is “mixed” in [7]; “mixed type of non-competitive and competitive inhibition” in series [7] (listed as Luteolin). For the same molecule, in [7] (αKi/Ki), the “α for inhibition of lenvatinib metabolism in HLM” value was found to be 1.34. For the same molecule, the Ki at 30 min in [4] (human liver microsomes, probe lenvatinib 4.23, 8.45, 16.90, 33.80 μM, Lineweaver-Burk secondary plot, n = 3) came to 14.3 ± 4.85 µM. For the same molecule, the “Inhibitory type on lenvatinib metabolism in RLM” value in [8] is given as “un-competitive”; in [8] (listed as Luteolin), “un-competitive inhibition”. For the same molecule, in the series with CYP2B6 (RLM), the “Degree of inhibition on CYP2B6” value is on record as “moderate inhibition”.

Regarding `Cc1ncc2n1-c1ccc(Cl)cc1C(c1ccccc1F)=NC2` [midazolam, reference compound], in the series with CYP3A4 [2], the Michaelis-Menten constant (Km) at 30 min amounted to 1.9 ± 0.13 µM.

Regarding `O=c1c(O)c(-c2cc(O)c(O)c(O)c2)oc2cc(O)cc(O)c12` [myricetin], the IC50 at CYP1A2 [1] was 5.61 ± 0.25 µM; in [9] (read-out: IC50 for inhibition of tofacitinib in RLM), 9.27 µM; in the series on CYP2B6 (read-out: IC50 for CYP2B6 in RLM, probe 8.0 μM bupropion, mixed probes, 0.3 mg/mL RLM), 25.6 ± 1.73 µM; in series [12] (read-out: IC50 for inhibition of tofacitinib in HLM) it was 2.35 µM. The molecule also gave an inhibition at 30 min, 100 µM against CYP1A2 [1] (microsomes) of 98.1%. Also, in series [9], the “Inhibition type on tofacitinib in RLM” value is “non-competitively”. Moreover, the half-maximal inhibitory concentration (IC50) at 30 min with CYP3A4 [2] is 5.11 ± 0.11 µM; in [4] it was 12.3 ± 1.21 µM; in [10], 11.2 ± 0.81 µM; in the series with CYP2B6 (microsomes, IC50 for CYP2B6 in RLM, probe 8.0 μM bupropion, mixed probes, 0.3 mg/mL RLM), more than 20 µM. Also, in [11], the Absolute bioavailability result was “less than 10%”. Besides, in series [12], the “Inhibition type on tofacitinib in HLM” value was “non-competitively”.

In turn, `COc1cc2nccc(Oc3ccc(NC(=O)NC4CC4)c(Cl)c3)c2cc1C(N)=O` [lenvatinib, Lenvatinib] gave a microsomal CLint at 1 μM in [13] of 2.3 ± 0.2 µL/min/mg. Besides, the half-life at 1 μM in series [13] (read-out: in vitro t1/2 of lenvatinib) stood at 17 ± 1.55 h. Moreover, in the series with HLM, the “Km in HLM lower than in RLM” value was determined as 28.1%. The Michaelis constant (Km) at 30 min in series [14] came to 16.9 ± 2.42 µM. In series [15], this molecule gave an AUC(0-inf) of 1410 ng·h/mL, an AUC(0-t) of 1260 ng·h/mL, a CL/F of 14.3 mL/min/kg and a Cmax of 147 ± 20.4 ng/mL. In [15], the Tmax was 5.6 ± 0.89 h and the t1/2z of lenvatinib came out at 4.14 ± 1.57 h.

Turning to `CC(=O)N1CCN(c2ccc(OCC3COC(Cn4ccnc4)(c4ccc(Cl)cc4Cl)O3)cc2)CC1` (stereo not drawn) [ketoconazole], the “Improvement of plasma exposure to lenvatinib” value in [5] is given as 3.01 times.

As for `Cc1nc2c([nH]1)c(=O)n(C)c(=O)n2Cc1ccco1` [Furafylline], the “Inhibitory effect on the formation of O-desmethyl lenvatinib” value in the series with CYP1A2 [16] is 37%.

B1: CYP1A2 (Rattus norvegicus) (protein)
chain: T1 sequence (P04799 1-513)
For B1, the Km in “not read” was determined as 32.39 ± 0.58 µM.
